Data set [1] can be described thus: Mutagenicity in Salmonella typhimurium TA98 assessed as mutagenic index ratio at 150 ug per plate incubated for 90 mins in presence of S9 fraction by AMES test. The class given is toxicity, subcellular, Salmonella enterica subsp. enterica serovar Typhimurium. The conditions noted are these: s9, 1.5 h, dose 150 µg.
The nature of data set [2]: Cytotoxicity against monkey LLC-MK2 cells incubated for 72 hrs by MTT assay. The class given is toxicity, cell-based, Macaca mulatta. The conditions noted are these: rhesus monkey. A general note: Formazan colour is commonly taken as a measure of viable cells.

This passage reports Ratio and CC50 results from ChEMBL document CHEMBL5528040, “Design and Synthesis of Novel 3-Nitro-1H-1,2,4-triazole-1,2,3-triazole-1,4-disubstituted Analogs as Promising Antitrypanosomatid Agents: Evaluation of In Vitro Activity against Chagas Disease and Leishmaniasis” (J Med Chem, 2024).

The CC50 is the concentration that lowers cell viability or growth by half. For the compound `O=[N+]([O-])c1ncn(Cc2cn(-c3ccc(OC(F)(F)F)cc3)nn2)n1`, the Ratio in data set [1] was determined as 1.1. In addition, the CC50 at 72 h in data set [2] was above 50 µM.
